This is an account of results in article PMC5527305, “Prevention of Ophthalmia Neonatorum Caused by Neisseria gonorrhoeae Using a Fatty Acid-Based Formulation” (mBio, 2017).

The subject of data set [1] is gonococcal cells (isolate NCCP 11945). Kind of data set: Log reduction in artificial tear fluid with or without calcium chloride. The conditions noted are these: calcium 1 mM; Fig. 2. It counts as cell-based, Neisseria gonorrhoeae. The procedure: The antigonococcal properties of the seven selected fatty acids were tested in artificial tear fluid, which contained calcium chloride. The addition of 1 mM lauric acid, tridecanoic acid, or sodium dodecanoate gave no reduction in bacterial cell number after exposure, in contrast to the results seen when they were tested in culture medium (Fig. 2). […] This was most likely due to the negative effect of calcium on the aqueous solubility of these candidates.
Artificial tear fluid was made as described by Mirejovsky and others ([39]) with or without calcium chloride. […] As with the previous log reductions, 10^7 gonococcal cells (isolate NCCP 11945) were suspended in GC broth. The cell suspension was centrifuged to remove the culture medium, and the bacteria were resuspended in the tear fluid. This was then added to the concentrated organic acid candidates. The cells were then enumerated again after 2 min of exposure to estimate any reduction in cell number due to the exposure to the organic acid.

The subject of data set [2] is bovine cornea. The experiment in a line: Bovine corneal opacity and permeability (BCOP) test. As to the method:
Bovine eyes were collected from a local slaughter house (ABP, Guildford, Surrey, United Kingdom) and were transported in cold saline solution for testing at the laboratory. Each eye was first visually examined for signs of damage before use. The test was conducted as detailed by Abdelkader and coworkers ([21]). The exposure time of the test substances was 30 s. The selected bactericidal compounds were tested at 1 mM in saline solution, with a corresponding vehicle control (1% ethanol–saline solution) also performed. […] The test area of the cornea was then washed with 10 ml saline solution. Corneal damage to the test area was assessed by fluorescein staining and examination under a cobalt blue filter. Pathological scoring based on opacity, epithelial integrity, and epithelial detachment was done in accordance with previous publications ([19]). Each of the seven lead candidates was tested in triplicate, and each test was performed on a separate day using a different batch of eyeballs. Corneal histology was done as outlined by Abdelkader and coworkers ([21]) by evaluating the damage to the epithelial layer and stroma of the cornea after hematoxylin and eosin staining.

Data set [3] has as its system C. trachomatis. Also on record: method as in PMID 9736551. The conditions noted are these: cited from earlier work.

Turning to `CCCCCCCCCC(=O)OCC(O)CO` (centres unmarked) [Monocaprin], the “Effect of calcium in artificial tear fluid on antimicrobial effect” value in data set [1] was “unaffected”. Further, in data set [2] (1 mM in saline solution, 30 s exposure, triplicate), the “Mean cumulative BCOP score” value was “lower than 0.5”. In addition, in data set [2] (1 mM, around rubber application ring), the “Fluorescein staining of cornea” value was “any sign of fluorescein staining”. Moreover, the BCOP irritancy classification result in data set [2] (candidates 1 mM in saline, controls 0.5 M NaOH, 100% acetone, 30 s exposure) is given as “nonirritants”. Besides, the “Activity against C. trachomatis” value in data set [3] is given as “bactericidal”.
